“And” between values parts separate entries of the source, which are not always exact repeats. Identical values can stand only once. Like-named read-outs stand apart in the source and are kept apart here.
How the values were obtained:
[1] = test system: U87MG human glioblastomas; experiment: U87MG human glioblastoma xenograft in nude mice, tumor growth inhibition Day 22 (Example 1)
Procedure: Each test mouse received a U87MG tumor fragment of the size 1 mm^3. […] Body weight and tumor size were monitored.
It was administered at either 5 mg/kg orally (p.o.) per day or 100 mg/kg (p.o.) per day, once daily from day 1 to day 5 of the treatment (qd×5). Candesartan in 0.5% carboxymethyl cellulose was dissolved in deionized water and administered intraperitoneally (i.p.) at the dose of 10 mg/kg once daily from day 1 to day 21 (qd×21).

U87MG tumor fragments = experiment: animal or person; details: for Regression CR (complete regression) / Regression PR (partial regression): number of animals
Procedure: HRLN female nu/nu mice were seeded with 1 mm^3 U87MG tumor fragments subcutaneously in the flank. Final caliper and body weight measurements were taken on the last day of the study.
All animals were assessed periodically for body weight, as well as tumor burden, using standard protocols with mechanical calipers. […] Dosing was stopped for any group with two measurements of mean body weight loss of greater than 20%. The group was not euthanized, and recovery was allowed. Within a group with greater than 20% weight loss, individuals reaching the individual body weight loss endpoint were euthanized. If the group body weight loss was recovered, dosing may resume. […] Dosing was then resumed with the candidate agent at half the original dose. Animals were monitored as a group. The endpoint of the experiment was a mean tumor weight in control group (or group 1) of 2000 mm^3 or 60 days, whichever comes first. When the endpoint was reached, all the animals were euthanized.

[2] = test system: U87MG human glioblastoma xenografts; experiment: U87MG human glioblastoma xenograft, tumor growth delay, 49-day study (Example 2);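 note: female athymic nude mice with subcutaneous tumors, groups of ten, tumors measured twice weekly, endpoint at 2000 mm^3 tumor volume or Day 49, treated compared with control mice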
Procedure: The experiment consisted of groups (n=10) of female athymic nude mice bearing subcutaneous U87MG xenografts (75-144 mm^3) on Day 1. Candesartan was evaluated as monotherapies at dosages of 1, 5, 10 and 50 mg/kg administered intraperitoneally (i.p.) on a once daily for twenty-one days (qd×21) schedule. […] Dosing was initiated on Day 1, and tumors were measured twice each week until the study was ended on Day 49. Animals were monitored individually and each mouse was euthanized for endpoint when its tumor attained a volume of 2000 mm^3 (about 2 grams) or on the final day (Day 49), whichever came first. Tumor samples were collected at endpoint, and histopathology analyses were performed.
The time to endpoint (TTE) was calculated for each mouse. Treatment outcome was determined from percent tumor growth delay (% TGD), defined as the percent increase in median TTE of treated versus control mice, with differences in the TTE values between groups deemed statistically significant at P 0.05 using logrank survival analysis. Animals were also monitored for partial regression (PR) and complete regression (CR) responses. Treatment tolerability was assessed by body weight measurements and frequent observation for signs of treatment-related (TR) toxicity.
Treatment response was determined from an analysis of percent tumor growth delay (% TGD), defined as the percent increase in the median time to endpoint (TTE) in treated versus control mice; by logrank significance of differences in survival among treatment groups; and by regression responses. Plots of group mean tumor growth were also considered. Treatment tolerability was assessed by body weight measurements and frequent observation for clinical symptoms of treatment-related (TR) side effects.
Xenografts were initiated with U87MG human glioblastomas (Piedmont Research Center, Morrisville, N.C.) by serial subcutaneous transplantation in athymic nude mice. Each test mouse received a U87MG tumor fragment (1 mm^3) implanted subcutaneously in the right flank, and the growth of tumors was monitored as the average size approached the target range of 80 to 120 mm^3. […] Tumor volume was calculated using the formula: Tumor Volume (mm^3)=w^2×l/2 where w=width and l=length in mm of a U87MG tumor. Tumor weight may be estimated with the assumption that 1 mg is equivalent to 1 mm^3 of tumor volume. Therapeutic Agents
Doses of valsartan and candesartan were each formulated weekly, and were stored at 4° C. Valsartan dosing solutions were formulated at concentrations of 15 and 3 mg/mL to yield the desired 150 and 30 mg/kg dosages, respectively, in a dosing volume of 0.2 mL per 20 grams body weight (10 mL/kg). The required amount of valsartan powder for the 15 mg/mL solution was suspended in sterile saline, then dissolved with 0.1 N NaOH and pH adjusted to 7.4 with 0.1 N HCl. The 3 mg/mL valsartan dosing solution was prepared by diluting an aliquot of the 15 mg/mL valsartan solution with sterile saline. Candesartan doses were formulated in 0.5% carboxymethyl cellulose (CMC) in deionized water at concentrations of 5, 1, 0.5 and 0.1 mg/mL to yield the desired 50, 10, 5 and 1 mg/kg dosages, respectively, in a dosing volume of 10 mL/kg.
Each test agent was administered intraperitoneally (i.p.) once daily for twenty-one days (qd×21), unless otherwise indicated.
Group 1 was not treated and served as the control group for calculation of % TGD. […] Groups 4-7 received candesartan at 50, 10, 5 or 1 mg/kg, respectively. […] All doses were scaled to the body weights of the individual animals.
Tumors were measured twice each week using calipers.

[3] = test system: U87MG glioma human tumor cell line
Procedure: Compounds are assessed for combination efficacy in a tumor fragment xenograft model generated by serial passage of a commonly available U87MG glioma human tumor cell line. Experimental cohorts are derived by seeding 8-12 week old, female HRLN nu/nu mice with 1 mm^3 sub-fragments of tumors maintained through serial passage in living xenografts. […] Experimental compounds are dosed once daily, in a dose volume less than or equal to 10 mL/kg, in varying vehicle resuspensions and varied routes (see table 7 below). All animals are assessed periodically for body weight, as well as tumor burden using standard protocols with mechanical calipers.
Experimental compounds are scored for efficacy using various data analyses, including manual growth curve inspection, comparison of mean time-to-tumor burden (analogous to C/T analysis), and time-to-event survival analysis by tumor burden.

[4] = test system: U87MG human glioblastoma xenografts
Procedure: An untreated group served as the control group for efficacy analysis. Dosing was initiated on Day 1, except where indicated otherwise, and tumors were measured twice each week until the study was ended on Day 46. Animals were monitored individually and each mouse was euthanized for endpoint when its tumor attained a volume of 2000 mm^3 (about 2 grams) or on the final day (Day 46), whichever came first.
Treatment response was determined from an analysis of percent tumor growth delay (% TGD), defined as the percent increase in the median time to endpoint (TTE) in treated versus control mice; by logrank significance of differences in survival among treatment groups; and by regression responses. Plots of group mean tumor growth were also considered. Treatment tolerability was assessed by body weight measurements and frequent observation for clinical symptoms of treatment-related side effects.
Xenografts were initiated with U87MG human glioblastomas maintained at Piedmont by serial subcutaneous transplantation in athymic nude mice. Each test mouse received a U87MG tumor fragment (1 mm^3) implanted subcutaneously in the right flank, and the growth of tumors was monitored as the average size approached the target range of 80 to 120 mm^3. […] Tumor volume was calculated using the formula: Tumor Volume (mm^3)=w^2×l where w=width and l=length in mm of a U87MG tumor. Tumor weight may be estimated with the assumption that 1 mg is equivalent to 1 mm^3 of tumor volume.
On Day 1 of the study, mice were sorted into six groups each consisting of ten mice, and dosing was initiated according to the treatment plan summarized in Table 1. Group 1 mice were not treated and served as controls for calculation of % TGD. […] All doses were scaled to the body weights of the individual animals.
Tumors were measured twice each week using calipers. Animals were monitored individually, and each mouse was euthanized when its tumor reached the endpoint size of 2000 mm^3 or at the conclusion of the study (Day 46), whichever came first.
Animals were monitored for regression responses. Treatment may cause partial regression (PR) or complete regression (CR) of the tumor in an animal. In a PR response, the tumor volume is 50% or less of its Day 1 volume for three consecutive measurements during the course of the study, and equal to or greater than 13.5 mm^3 for one or more of these three measurements. In a CR response, the tumor volume is less than 13.5 mm^3 for three consecutive measurements during the course of the study. An animal with a CR response at the termination of a study is additionally classified as a tumor-free survivor (TFS).
Animals were weighed daily on Days 1-5, and then twice weekly until the study was completed. […] Acceptable toxicity was defined as a group mean body-weight loss of less than 20% during the study and not more than one treatment-related (TR) death among ten treated animals. Any dosing regimen that results in greater toxicity is considered above the maximum tolerated dose (MTD). […] A death is classified as NTR if there is no evidence that death was related to treatment side effects. NTR deaths may be further characterized based on cause of death. A death may be classified as NTRa if it resulted from an accident or human error. […] A death may be classified as NTRu if the cause of death is unknown and there is no available evidence of death related to treatment side effects, metastasis, accident or human error, although death due to treatment side effects cannot be excluded.

[5] = temozolomide 100 mg/kg p.o. qdx5
[6] = Group 1: temozolomide 5 po qd x 5 alone
[7] = Group 1: temozolomide 5 po qd x 5 alone, n=10
[8] = Group 19: temozolomide 100 po qd x 5 alone
[9] = Group 19: temozolomide 100 po qd x 5 alone, n=8
[10] = Group 2: temozolomide 100 mg/kg po qd x 5
[11] = Group 3: temozolomide 5 mg/kg po qd x 5
[12] = Day 1, temozolomide 100 mg/kg p.o. qdx5
[13] = Day 4, temozolomide 100 mg/kg p.o. qdx5
[14] = Day 7, temozolomide 100 mg/kg p.o. qdx5
[15] = Day 11, temozolomide 100 mg/kg p.o. qdx5
[16] = Day 14, temozolomide 100 mg/kg p.o. qdx5
[17] = Day 18, temozolomide 100 mg/kg p.o. qdx5
[18] = Day 21, temozolomide 100 mg/kg p.o. qdx5
[19] = Day 25, temozolomide 100 mg/kg p.o. qdx5
[20] = Day 28, temozolomide 100 mg/kg p.o. qdx5
[21] = temozolomide 100 mg/kg po qd x 5
[22] = Group 2: temozolomide 5 mg/kg po qd x 5
[23] = Group 6: temozolomide 100 mg/kg po qd x 5

## Cn1nnc2c(C(N)=O)ncn2c1=O [Temozolomide, temozolomide]
[1]; temozolomide 5 mg/kg p.o. qdx5
  MTV (n) Day 22 (mean tumor volume): 825 mm^3
  No. of CR: 0
  No. of NTR: 0
  No. of PR: 0
  No. of TR: 0
[1]; temozolomide 5 mg/kg p.o. qdx5, listed as temozolomide
  MTV (n) Day 22 (mean tumor volume): 825.1 ± 95.03 N = 115 mm^3
[1]; [5]
  No. of CR: 0
  No. of NTR: 0
  No. of PR: 1
  No. of TR: 0
[1]; temozolomide 100 mg/kg p.o. qdx5, Day 22, compared to temozolomide at 5 mg/kg
  % TGI: 88%
U87MG tumor fragments; [6]
  Deaths NTR (non-treatment-related death): 0
  Deaths TR (treatment-related death): 0
  MTV(n) Day 29 (median tumor volume): 410 (10) mm^3
U87MG tumor fragments; [7]
  Regression CR (complete regression): 1
  Regression PR (partial regression): 0
U87MG tumor fragments; [8]
  Deaths NTR (non-treatment-related death): 0
  Deaths TR (treatment-related death): 0
  Mean BW Nadir (lowest group mean body weight, as % change from Day 1): −2.5%
  MTV(n) Day 29 (median tumor volume): 10 (8) mm^3
U87MG tumor fragments; [9]
  Regression CR (complete regression): 7
  Regression PR (partial regression): 1
U87MG tumor fragments; Mus musculus, U-87 MG, po, 864 h, read-out: % TGI (percent tumor growth inhibition, compared to Group 1)
  inhibition in vivo at 100 mg/kg: 98%
U87MG tumor fragments; mouse, in vivo, po
  Mean BW Nadir, day of nadir: Day 8
[2]; [10]
  % TGD (vs Group 1): 276%
  Deaths NTR: 0
  Deaths TR: 0
  MTV (n) Day 49: 0 (2) mm^3
  Median TTE: 43.6 days
  Regressions CR: 2
  Regressions PR: 3
  Regressions TFS: 2
  T − C (TGD vs Group 1): 32.0 days
[2]; [11]
  % TGD (vs Group 1): 93%
  Deaths NTR: 0
  Deaths TR: 0
  Median TTE: 22.4 days
  Regressions CR: 0
  Regressions PR: 0
  Regressions TFS: 0
  T − C (TGD vs Group 1): 10.8 days
[3]; Day 1, temozolomide 5 mg/kg po qd x 5
  TV, group Mean: 111.2 mm^3
[3]; [12]
  TV, group Mean: 110.7 mm^3
  TV, individual mice: 88 mm^3 and 108 mm^3
[3]; Day 4, temozolomide 5 mg/kg po qd x 5
  TV, group Mean: 222.2 mm^3
[3]; [13]
  TV, group Mean: 182.8 mm^3
  TV, individual mice: 144 mm^3 and 172 mm^3
[3]; Day 7, temozolomide 5 mg/kg po qd x 5
  TV, group Mean: 439.1 mm^3
[3]; [14]
  TV, group Mean: 185 mm^3
  TV, individual mice: 144 mm^3 and 196 mm^3
[3]; Day 11, temozolomide 5 mg/kg po qd x 5
  TV, group Mean: 599.1 mm^3
[3]; [15]
  TV, group Mean: 215.2 mm^3
  TV, individual mice: 100 mm^3 and 256 mm^3
[3]; Day 14, temozolomide 5 mg/kg po qd x 5
  TV, group Mean: 720.4 mm^3
[3]; [16]
  TV, group Mean: 221.5 mm^3
  TV, individual mice: 144 mm^3
[3]; Day 18, temozolomide 5 mg/kg po qd x 5
  TV, group Mean: 852.1 mm^3
[3]; [17]
  TV, group Mean: 140.6 mm^3
  TV, individual mice: 88 mm^3
[3]; Day 21, temozolomide 5 mg/kg po qd x 5
  TV, group Mean: 1058.6 mm^3
[3]; [18]
  TV, group Mean: 99.1 mm^3
  TV, individual mice: 75 mm^3
[3]; Day 25, temozolomide 5 mg/kg po qd x 5
  TV, group Mean: 1795.6 mm^3
[3]; [19]
  TV, group Mean: 98.4 mm^3
  TV, individual mice: 88 mm^3
[3]; Day 28, temozolomide 5 mg/kg po qd x 5
  TV, group Mean: 1890.8 mm^3
[3]; [20]
  TV, group Mean: 95 mm^3
  TV, individual mice: 144 mm^3
[3]; temozolomide 5 mg/kg po qd x 5
  Deaths NTR: 0
  Deaths TR: 0
  MTV (n) Day 25 (median tumor volume): 1180 mm^3
  Regressions CR: 0
  Regressions PR: 0
[3]; [21]
  Deaths NTR: 0
  Deaths TR: 0
  MTV (n) Day 25 (median tumor volume): 88 mm^3
  Regressions CR: 0
  Regressions PR: 0
[3]; temozolomide 100 mg/kg po qd x 5, Day 25, compared to temozolomide 5 mg/kg group
  % TGI: 94%
[4]
  Median TTE: 42.0 days
[4]; [22]
  % TGD (vs Group 1): 152%
  Deaths NTR: 0
  Deaths TR: 0
  Median TTE: 28.7 days
  Regressions CR: 0
  Regressions PR: 0
  Regressions TFS: 0
  T − C (TGD vs Group 1): 17.3 days
[4]; [23]
  % TGD (vs Group 1): 268%
  Deaths NTR: 0
  Deaths TR: 0
  Median TTE: 42 days
  Regressions CR: 1
  Regressions PR: 0
  Regressions TFS: 1
  T − C (TGD vs Group 1): 30.6 days
[4]; Group 6: temozolomide 100 mg/kg po qd x 5, excludes animals attaining tumor volume endpoint
  MTV (n) Day 46 (median tumor volume): 0 (1) mm3
